Source: PubChem BioAssay (NCI)
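The compound was tested at five concentrations on cells cultured in 96-well plates, with a 48-hour exposure period. Abbreviation: GI50, concentration required for 50% inhibition of growth. TGI: concentration producing complete growth inhibition.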

Tested on: P388 leukemia
Assay: NCI tumour cell line growth inhibition, 48 h

## CCc1ccc([O-])c(C=NCCCN(C)CCCN=Cc2cc(C)ccc2[O-])c1.[Co+3].[N-]=[N+]=[N-]
  GI50: 145 µg/mL
  TGI: > 150 µg/mL
